In assay [1] the target is Cdk4/CyclinD1 (Homo sapiens (Human), UniProt P11802). Nature of the assay: Cdk4 kinase inhibition assay with recombinant Cdk4/CyclinD1, Rb substrate, [33P]-ATP filter plate. It is filed as biochemical. The following applies: 25 μM ATP, read-out: Cdk 4 IC50. In outline:
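Recombinant Cdk4/CyclinD1 or Cdk6/CyclinD3 phosphorylated Rb protein with [33P]-ATP for 1 h at room temperature. Protein was TCA-precipitated on filter plates and bound radioactivity counted. IC50 by nonlinear regression.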

For assay [2], the target named is Cdk6/CyclinD3 (Homo sapiens (Human), UniProt Q00534). The experiment in a line: Cdk6 kinase inhibition assay with recombinant Cdk6/CyclinD3, Rb substrate, [33P]-ATP filter plate. It is filed as biochemical. The following applies: 25 μM ATP, read-out: Cdk 6 IC50. How it is done: The Cdk4 and Cdk6 inhibitory activity of the compounds is measured with a kinase inhibition assay using recombinant Cdk4/CyclinD1 or Cdk6/CyclinD3 protein complexes. The protein substrate used in the assay is the retinoblastoma protein (Rb). The kinase reactions are carried out in a 96-well filter plate (MSDV N6B50, Millipore). […] The mixture is incubated at room temperature for 1 hour and the proteins precipitated with an equal volume of 20% TCA. The plates are washed with 10% TCA according to the manufacturer's instruction and dried at room temperature. The amount of the phosphorylated Rb is determined with a TopCount (PerkinElmer). The IC50 of a compound is determined by nonlinear regression curve fitting using software program Prism 5 (GraphPad Software).

By IC50 is commonly meant the concentration needed to halve the response being measured.

Chain of Cdk6/CyclinD3 (Q00534 whole entry): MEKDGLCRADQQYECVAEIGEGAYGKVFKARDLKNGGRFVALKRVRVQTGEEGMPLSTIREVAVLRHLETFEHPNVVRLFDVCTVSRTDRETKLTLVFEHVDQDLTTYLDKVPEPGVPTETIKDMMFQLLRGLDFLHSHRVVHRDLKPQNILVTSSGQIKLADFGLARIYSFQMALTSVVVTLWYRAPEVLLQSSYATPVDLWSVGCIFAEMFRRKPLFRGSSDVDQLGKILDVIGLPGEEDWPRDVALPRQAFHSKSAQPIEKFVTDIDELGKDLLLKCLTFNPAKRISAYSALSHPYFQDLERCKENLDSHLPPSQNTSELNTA
Chain of Cdk6/CyclinD3 (P30281 whole entry partner): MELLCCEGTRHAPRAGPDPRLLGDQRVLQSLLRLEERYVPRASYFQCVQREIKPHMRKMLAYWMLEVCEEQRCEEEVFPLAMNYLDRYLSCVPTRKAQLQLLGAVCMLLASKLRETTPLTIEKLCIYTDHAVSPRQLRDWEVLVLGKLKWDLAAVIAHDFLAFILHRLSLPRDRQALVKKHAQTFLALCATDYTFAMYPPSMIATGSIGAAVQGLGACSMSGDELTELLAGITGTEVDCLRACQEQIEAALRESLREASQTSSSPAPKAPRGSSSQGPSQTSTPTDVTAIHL
Chain of Cdk4/CyclinD1 (P11802 whole entry): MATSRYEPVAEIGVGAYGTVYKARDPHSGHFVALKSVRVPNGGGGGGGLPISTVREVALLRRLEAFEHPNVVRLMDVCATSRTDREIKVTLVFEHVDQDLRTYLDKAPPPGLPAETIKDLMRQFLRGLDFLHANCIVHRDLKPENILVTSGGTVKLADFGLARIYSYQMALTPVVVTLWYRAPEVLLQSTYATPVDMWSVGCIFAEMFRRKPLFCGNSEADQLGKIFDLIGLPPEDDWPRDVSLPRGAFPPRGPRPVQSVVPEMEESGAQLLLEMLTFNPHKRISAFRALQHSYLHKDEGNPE
Chain of Cdk4/CyclinD1 (P24385 whole entry partner): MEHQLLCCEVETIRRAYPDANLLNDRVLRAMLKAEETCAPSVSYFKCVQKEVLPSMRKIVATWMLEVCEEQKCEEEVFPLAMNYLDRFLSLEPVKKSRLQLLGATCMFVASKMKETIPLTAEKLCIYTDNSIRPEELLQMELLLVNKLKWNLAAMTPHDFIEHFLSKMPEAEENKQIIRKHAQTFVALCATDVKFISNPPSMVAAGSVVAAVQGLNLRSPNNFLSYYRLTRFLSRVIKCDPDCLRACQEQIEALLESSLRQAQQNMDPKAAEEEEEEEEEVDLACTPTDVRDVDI

As to `O[C@@H]1CCCN(c2ccc(Nc3ncc4c5ccncc5n(C5CCCC5)c4n3)nn2)C1` [Example 104], the IC50 in assay [1] stood at 3.3 nM; in assay [2], 14 nM.
The corresponding values for `O[C@H]1CCCN(c2ccc(Nc3ncc4c5ccncc5n(C5CCCC5)c4n3)nn2)C1` [Example 105] are 6.7 nM and 7.1 nM.
For `c1cc2c3cnc(Nc4ccc(N5CCOCC5)nn4)nc3n(C3CCCC3)c2cn1` [Example 106] the same measures were 4 nM and 24.3 nM.
For the compound `c1cc2c3cnc(Nc4ccc(N5CCCCC5)nn4)nc3n(C3CCCC3)c2cn1` [Example 107], the results for the IC50 in assay [1] and in assay [2] were 8.4 nM and 48 nM, respectively.
For `N[C@H]1CCN(c2ccc(Nc3ncc4c5ccncc5n(C5CCCC5)c4n3)nn2)C1` [Example 108] the same measures were 12 nM and 15.7 nM.
The corresponding values for `N[C@@H]1CCN(c2ccc(Nc3ncc4c5ccncc5n(C5CCCC5)c4n3)nn2)C1` [Example 109] are 1.9 nM and 11 nM.
With `c1cc2c3cnc(Nc4ccc(N5CCCC5)nn4)nc3n(C3CCCC3)c2cn1` [Example 111], the IC50 is 4.4 nM in assay [1] and 19.7 nM in assay [2].
The corresponding values for `NC1CCN(c2ccc(Nc3ncc4c5ccncc5n(C5CCCC5)c4n3)nn2)CC1` [Example 114] are 1.6 nM and 10 nM.
For `c1cc2c3cnc(Nc4ccc(N5CCCNCC5)nn4)nc3n(C3CCCC3)c2cn1` [Example 117] the same measures were 5.5 nM and 6.8 nM.
The corresponding values for `Clc1nccc2c3cnc(Nc4ccc(N5CCNCC5)cn4)nc3n(C3CCCC3)c12` [Example 152, 8-Chloro-9-cyclopentyl-N-(5-(1-piperazinyl)-2-pyridinyl)-9H-pyrido[4′,3′:4,5]pyrrolo[2,3-d]pyrimidin-2-amine] are 2 nM and 4.3 nM.
Consider `CN(C)C1CCN(c2ccc(Nc3ncc4c5ccnc(Cl)c5n(C5CCCC5)c4n3)nc2)CC1` [Example 153, 8-Chloro-9-cyclopentyl-N-(5-(4-(dimethylamino)-1-piperidinyl)-2-pyridinyl)-9H-pyrido[4′,3′:4,5]pyrrolo[2,3-d]pyrimidin-2-amine], for which the 50% inhibitory concentration (IC50) worked out at 1 nM in assay [1] and 2.8 nM in assay [2].
As for `CCC(C)(C)n1c2cnccc2c2cnc(Nc3ccc(N4CCC(N(C)C)CC4)nn3)nc21` [Example 156, N-(6-(4-(dimethylamino)-1-piperidinyl)-3-pyridazinyl)-9-(1,1-dimethylpropyl)-9H-pyrido[4′,3′:4,5]pyrrolo[2,3-d]pyrimidin-2-amine], the IC50 is 7 nM in assay [1] and 14 nM in assay [2].
For `CCC(C)(C)n1c2cnccc2c2cnc(Nc3ccc(N4CCNCC4)cn3)nc21` [Example 157, 9-(1,1-dimethylpropyl)-N-(5-(1-piperazinyl)-2-pyridinyl)-9H-pyrido-[4′,3′:4,5]pyrrolo[2,3-d]pyrimidin-2-amine] the same measures were 30 nM and 25 nM.
On to `CN(C)C1CC2CCC(C1)N2c1ccc(Nc2ncc3c4ccncc4n(C4CCCC4)c3n2)nc1` (centres unmarked) [Example 158, 9-cyclopentyl-N-(5-(3-(dimethylamino)-8-azabicyclo[321]oct-8-yl)-2-pyridinyl)-9H-pyrido[4′,3′:4,5]pyrrolo[2,3-d]pyrimidin-2-amine], for which the concentration for half-maximal inhibition (IC50) came out at 5.4 nM in assay [1] and 5.3 nM in assay [2].
As to `CC(C)n1c2cnccc2c2cnc(Nc3ccc(N4CCC(N(C)C)CC4)nn3)nc21` [Example 160, N-(6-(4-(Dimethylamino)-1-piperidinyl)-3-pyridazinyl)-9-(1-methylethyl)-9H-pyrido[4′,3′:4,5]pyrrolo[2,3-d]pyrimidin-2-amine], the concentration for half-maximal inhibition (IC50) was determined as 2.5 nM in assay [1] and 4.8 nM in assay [2].
For `CCC(CC)n1c2cnccc2c2cnc(Nc3ccc(N4CCNCC4)cn3)nc21` [Example 161, 9-(1-Ethylpropyl)-N-(5-(1-piperazinyl)-2-pyridinyl)-9H-pyrido[4′,3′:4,5]pyrrolo[2,3-d]pyrimidin-2-amine] the same measures were 3.6 nM and 16 nM.
The corresponding values for `CCC(CC)n1c2cnccc2c2cnc(Nc3ccc(N4CC[C@@H](O)C4)nn3)nc21` [Example 162, (3R)-1-(6-((9-(1-Ethylpropyl)-9H-pyrido[4′,3′:4,5]pyrrolo[2,3-d]pyrimidin-2-yl)-amino)-3-pyridazinyl)-3-pyrrolidinol] are 10000 nM and 110 nM.
For `CCC(CC)n1c2cnccc2c2cnc(Nc3ccc(N4CCC(N(C)C)CC4)nn3)nc21` [Example 163, N-(6-(4-(Dimethylamino)-1-piperidinyl)-3-pyridazinyl)-9-(1-ethylpropyl)-9H-pyrido[4′,3′:4,5]pyrrolo[2,3-d]pyrimidin-2-amine] the same measures were 17 nM and 16 nM.
As to `c1cc2c3cnc(Nc4nc(CN5CCNCC5)cs4)nc3n(C3CCCC3)c2cn1` [Example 164, 9-Cyclopentyl-N-(4-(1-piperazinylmethyl)-1,3-thiazol-2-yl)-9H-pyrido-[4′,3′:4,5]pyrrolo[2,3-d]pyrimidin-2-amine], the IC50 in assay [1] worked out at 3.6 nM; in assay [2] it was 6.2 nM.
Turning to `O[C@H]1CCN(Cc2csc(Nc3ncc4c5ccncc5n(C5CCCC5)c4n3)n2)C1` [Example 165, (3S)-1-((2-((9-Cyclopentyl-9H-pyrido[4′,3′:4,5]pyrrolo[2,3-d]pyrimidin-2-yl)amino)-1,3-thiazol-4-yl)methyl)-3-pyrrolidinol], the IC50 in assay [1] came out at 8.5 nM; in assay [2], 17 nM.
As to `c1cc(Nc2ncc3c4sncc4n(C4CCCC4)c3n2)ncc1N1CCNCC1` [Example 168, 4-Cyclopentyl-N-(5-(1-piperazinyl)-2-pyridinyl)-4H-isothiazolo[5′,4′:4,5]pyrrolo[2,3-d]pyrimidin-6-amine], the IC50 in assay [1] and in assay [2] was 10000 nM throughout.
Consider `CN(C)C1CCN(c2ccc(Nc3ncc4c5ccnc(F)c5n(CC5CC5)c4n3)nn2)CC1` [Example 169], for which the figures for the IC50 in assay [1] and in assay [2] were 140 nM and 150 nM, respectively.
`O[C@H]1CCN(Cc2csc(Nc3ncc4c5ccnc(F)c5n(C5CCCC5)c4n3)n2)C1` [Example 181, (3S)-1-((2-((9-Cyclopentyl-8-fluoro-9H-pyrido[4′,3′:4,5]pyrrolo[2,3-d]pyrimidin-2-yl)amino)-1,3-thiazol-4-yl)methyl)-3-pyrrolidinol]: the IC50 amounted to 15 nM in assay [1] and 26 nM in assay [2].
The corresponding values for `COc1ccc2c3cnc(Nc4ccc(N5CCNCC5)cn4)nc3n(C3CCCC3)c2n1` [Example 182, 9-Cyclopentyl-7-methoxy-N-(5-(1-piperazinyl)-2-pyridinyl)-9H-pyrido[3′,2′:4,5]pyrrolo[2,3-d]pyrimidin-2-amine] are 113 nM and 16 nM.
For `Oc1ccc2c3cnc(Nc4ccc(N5CCNCC5)cn4)nc3n(C3CCCC3)c2n1` [Example 183, 9-Cyclopentyl-2-((5-(1-piperazinyl)-2-pyridinyl)amino)-9H-pyrido[3′,2′:4,5]pyrrolo[2,3-d]pyrimidin-7-ol] the same measures were 142 nM and 104 nM.
The corresponding values for `Cn1c(=O)ccc2c3cnc(Nc4ccc(N5CCNCC5)cn4)nc3n(C3CCCC3)c21` [Example 184, 9-Cyclopentyl-8-methyl-2-((5-(1-piperazinyl)-2-pyridinyl)amino)-8,9-dihydro-7H-pyrido[3′,2′:4,5]pyrrolo[2,3-d]pyrimidin-7-one] are 8.6 nM and 31 nM.
On to `Cn1c(=O)ccc2c3cnc(Nc4ccc(N5CC[C@@H](O)C5)cn4)nc3n(C3CCCC3)c21` [Example 185, 9-Cyclopentyl-2-((5-((3R)-3-hydroxy-1-pyrrolidinyl)-2-pyridinyl)amino)-8-methyl-8,9-dihydro-7H-pyrido[3′,2′:4,5]pyrrolo[2,3-d]pyrimidin-7-one], for which the half-maximal inhibitory concentration (IC50) in assay [1] was determined as 145 nM; in assay [2], 149 nM.
For `OCC1CCN(c2ccc(Nc3ncc4c5ccnc(F)c5n(C5CCCC5)c4n3)nc2)CC1` [Example 187, (1-(6-((9-Cyclopentyl-8-fluoro-9H-pyrido[4′,3′:4,5]pyrrolo[2,3-d]pyrimidin-2-yl)amino)-3-pyridinyl)-4-piperidinyl)methanol] the same measures were 2.9 nM and 2.8 nM.
For the compound `N#Cc1nccc2c3cnc(Nc4ccc(N5CCNCC5)cn4)nc3n(C3CCCC3)c12` [Example 188, 9-Cyclopentyl-2-((5-(1-piperazinyl)-2-pyridinyl)amino)-9H-pyrido[4′,3′:4,5]pyrrolo[2,3-d]pyrimidine-8-carbonitrile], the figures for the IC50 in assay [1] and in assay [2] were 27 nM and 13.4 nM, respectively.
For the compound `CC1CN(c2ccc(Nc3ncc4c5ccnc(F)c5n(C5CCCC5)c4n3)nc2)CC(C)N1` (centres unmarked) [Example 189, 9-Cyclopentyl-N-(5-(3,5-dimethyl-1-piperazinyl)-2-pyridinyl)-8-fluoro-9H-pyrido[4′,3′:4,5]pyrrolo[2,3-d]pyrimidin-2-amine], the IC50 amounted to 20 nM in assay [1] and 22 nM in assay [2].
For `OCCC1CCN(c2ccc(Nc3ncc4c5ccnc(F)c5n(C5CCCC5)c4n3)nc2)CC1` [Example 190, 2-(1-(6-((9-Cyclopentyl-8-fluoro-9H-pyrido[4′,3′:4,5]pyrrolo[2,3-d]pyrimidin-2-yl)amino)-3-pyridinyl)-4-piperidinyl)ethanol] the same measures were 6.4 nM and 7.6 nM.
